Paper PMC8838850, “Synthesis, Antimicrobial, Anti-Virulence and Anticancer Evaluation of New 5(4H)-Oxazolone-Based Sulfonamides” (Molecules, 2022)
In brackets after ≈: the same amount, converted by molar mass.

Experiments:
Panc-1 = test: Caspase-Glo 3/7 apoptosis assay; assay type: cell-based, human; conditions: ½ IC50, IC50 or 2 ×IC50 for 6 h, vs untreated controls
Method: Caspases play critical roles in apoptosis. The apoptotic effects of selected compounds 5, 7 and 10 on pancreatic cell line Panc-1 were tested by quantification of caspase 3/7 using Caspase-Glo 3/7 assay kit (Promega, Fitchburg, MA, USA) as previously described. Briefly, cells were treated with or without compounds 5, 7 and 10 (½ IC50, IC50, or 2 ×IC50) for 6 h. The prepared reagent Caspase-Glo 3/7 was added in equal volumes to cells, gently mixed, and incubated for 60 min at room temperature. The luminescence was measured, and the activity of caspase was presented as a percentage change from the untreated control.

[1] = test system: Aspergillus niger ATCC 16404; test: MIC by agar dilution (antifungal); assay type: cell-based; conditions: ATCC16404, read-out: Minimum inhibitory concentration (MIC)
Method: (§1) The MICs of the synthesized compound were determined by agar dilution method according to the Clinical Laboratory and Standards Institute Guidelines (CLSI, 2015). Briefly, the tested strains were incubated overnight in tryptic soy broth (TSB) (Oxoid, United Kingdom) and then diluted in Muller–Hinton (MH) broth (Oxoid, United Kingdom) to turbidity approximating to the equivalent of 0.5 McFarland standard. The suspensions were further diluted with sterile saline (1:10) and standardized inoculums (approximately 10^4 CFU per spot) were spotted on the surfaces of MH agar (Oxoid, United Kingdom) plates containing different concentrations of tested compounds and a control plate. The MICs were the lowest concentrations that inhibit growth on the plates after incubation at 37 °C for 20 h.

[2] = test system: Candida albicans ATCC 10231; test: MIC by agar dilution (antifungal); assay type: cell-based; conditions: Candida albicans, ATCC10231, Candida albicans ATCC 10231, read-out: Minimum inhibitory concentration (MIC)
Method: as §1

P. aeruginosa [3] = test: Assay of hemolytic activity; assay type: cell-based, Pseudomonas aeruginosa; conditions: sub-MIC
Method: (§2) The anti-virulence effects of compounds 5, 7 and 10 on hemolytic activity of tested P. aeruginosa and S. aureus strains were assessed as described previously. Optically adjusted bacterial cultures treated or untreated with tested compounds at sub-MIC were centrifuged, and 0.5 mL of supernatants were mixed with fresh 0.8 mL 2% erythrocyte (obtained from experimental animals) suspension in saline, and incubated for 2 h at 37 °C. A complete hemolysis positive control was prepared by addition of sodium dodecyl sulphate (SDS) to erythrocyte suspension, and negative control was prepared by incubation of erythrocytes in LB broth under the same conditions. After centrifugation, the absorbances of the lysed erythrocytes were measured at 540 nm by Biotek spectrofluorometer (Biotek, Winooski, VT, USA). The experiment was performed in triplicate, and the hemolysis of tested compound treated cultures were expressed as mean ± standard error of percentages compared with those obtained from untreated control cultures using the formula: (absorbance in presence or absence of tested compounds—absorbance of negative control)/(absorbance of positive control—absorbance of negative control).

P. aeruginosa [4] = test: Assay of protease production (casein substrate); assay type: cell-based, Pseudomonas aeruginosa; conditions: sub-MIC
Method: The effect of compounds 5, 7 and 10 on the production of protease was evaluated using casein substrate as described earlier. Briefly, overnight cultures of P. aeruginosa and S. aureus were cultivated in LB broth in the presence or absence of compounds 5, 7 and 10 at ½ MIC for 24 h at 37 °C. The supernatants were collected, mixed (1:1) with 0.05 M casein in phosphate buffer (2%) and NaOH (0.1 M) at pH 7.0, and incubated for 15 min at 37 °C. The reaction was stopped by adding 2 mL of 0.4 M trichloroacetic acid for 30 min at 25 °C. Any precipitates were removed, and the optical densities were detected at 660 nm. The assays were performed in triplicate and the obtained optical densities of tested strains treated with compounds 5, 7 and 10 were expressed as mean ± standard error of percentage change from untreated tested strains control (positive control) and LB (negative control). The protease inhibition percentages were calculated: (O.D control—O.D tested compounds)/O.D control.

S. aureus [5] = test: Assay of hemolytic activity; assay type: cell-based, Staphylococcus aureus; conditions: sub-MIC
Method: as §2

[6] = test system: Pseudomonas aeruginosae ATCC 47085; test: MIC by agar dilution; assay type: cell-based, Pseudomonas aeruginosa; conditions: ATCC47085, 37 °C, 20 h, read-out: Minimum inhibitory concentration (MIC)
Method: as §1

S. aureus [7] = test: Quantification of staphyloxanthin pigment; assay type: cell-based, Staphylococcus aureus; conditions: sub-MIC
Method: Staphyloxanthin and intermediate carotenoids were extracted from S. aureus treated or untreated with compounds 5, 7 and 10 at sub-MIC as described. Bacterial cells were cultivated in TSB at 37 °C for 24 h, then cells were collected by centrifugation, and washed twice with phosphate-buffered saline (PBS). The obtained pellets were used to extract staphyloxanthin with methanol. The pellets (5 gm of) were resuspended in 20 mL methanol, and heated with gentle stirring at 55 °C in a water bath for 5 min. Then, the methanol extract liquids were cooled and centrifuged, and the absorbances of the produced staphyloxanthin were quantified spectrophotometrically at 450 nm (Biotek, Winooski, VT, USA). The experiment was repeated in triplicate, and the pigment absorbances in the presence of tested compounds were expressed as mean ± standard error of percentage change from untreated controls. The percentages of pigment production were calculated using the formula: (absorbance of control − absorbance in presence of tested compounds)/absorbance of control.

[8] = test system: Staphylococcus aureus ATCC 6538; test: MIC by agar dilution; assay type: cell-based; conditions: ATCC6538, 37 °C, 20 h, read-out: Minimum inhibitory concentration (MIC)
Method: as §1

[9] = test system: Klebsiella pneumoniae ATCC 27736; test: MIC by agar dilution; assay type: cell-based; conditions: ATCC27736, 37 °C, 20 h, read-out: Minimum inhibitory concentration (MIC)
Method: as §1

[10] = test system: Escherichia coli ATCC 10536; test: MIC by agar dilution; assay type: cell-based; conditions: ATCC10536, 37 °C, 20 h, read-out: Minimum inhibitory concentration (MIC)
Method: as §1

[11] = test system: Staphylococcus epidermidis ATCC 12228; test: MIC by agar dilution; assay type: cell-based; conditions: ATCC12228, 37 °C, 20 h, read-out: Minimum inhibitory concentration (MIC)
Method: as §1

[12] = test system: Micrococcus spp. ATCC 10240; test: MIC by agar dilution; assay type: cell-based; conditions: ATCC10240, 37 °C, 20 h, read-out: Minimum inhibitory concentration (MIC)
Method: as §1

[13] = test system: Salmonella typhimurium ATCC 14028; test: MIC by agar dilution; assay type: cell-based; conditions: Salmonella enterica, 37 °C, 20 h, read-out: Minimum inhibitory concentration (MIC)
Method: as §1

Row | Compound | Apoptotic effect, caspase 3/7 levels (Panc-1) | MIC [1] | MIC [2] | Hemolytic activity (P. aeruginosa [3]) | Production of protease (P. aeruginosa [4]) | Hemolytic activity (S. aureus [5]) | MIC [6] | Production of pigment staphyloxanthin (S. aureus [7]) | MIC [8] | MIC [9] | MIC [10] | MIC [11] | MIC [12] | MIC [13]
1 | Cc1ccc(S(=O)(=O)Nc2ccccc2C2=N/C(=C/c3ccccc3)C(=O)O2)cc1 [Compound 9a, (E)-N-(2-(4-Benzylidene-5-oxo-4,5-dihydrooxazol-2-yl)phenyl)-4-methylbenzenesulfonamide] | triggered apoptosis through increasing the amounts of activated caspases 3/7 | 32 µg/mL (≈ 76.5 µM) | 16 µg/mL (≈ 38.2 µM) | significantly diminished the hemolytic activity | significantly reduced the production of protease | significantly diminished the hemolytic activity | 8 µg/mL (≈ 19.1 µM) | significantly decreased the production | 4 µg/mL (≈ 9.56 µM) | 4 µg/mL (≈ 9.56 µM) | 2 µg/mL (≈ 4.78 µM) | 4 µg/mL (≈ 9.56 µM) | 4 µg/mL (≈ 9.56 µM) | 4 µg/mL (≈ 9.56 µM)
2 | COc1ccc(/C=C2/N=C(c3ccccc3NS(=O)(=O)c3ccc(C)cc3)OC2=O)cc1 [Compound 9b, (E)-N-(2-(4-(4-Methoxybenzylidene)-5-oxo-4,5-dihydrooxazol-2-yl)phenyl)-4-methylbenzenesulfonamide] | triggered apoptosis through increasing the amounts of activated caspases 3/7 | > 32 µg/mL | > 32 µg/mL | significantly diminished the hemolytic activity | significantly reduced the production of protease | significantly diminished the hemolytic activity | 4 µg/mL (≈ 8.92 µM) | significantly decreased the production | 2 µg/mL (≈ 4.46 µM) | 4 µg/mL (≈ 8.92 µM) | 2 µg/mL (≈ 4.46 µM) | 1 µg/mL (≈ 2.23 µM) | 1 µg/mL (≈ 2.23 µM) | 4 µg/mL (≈ 8.92 µM)
3 | Cc1ccc(S(=O)(=O)Nc2ccccc2C2=N/C(=C/c3ccc([N+](=O)[O-])cc3)C(=O)O2)cc1 [Compound 9f, (E)-4-Methyl-N-(2-(4-(4-nitrobenzylidene)-5-oxo-4,5-dihydrooxazol-2-yl)phenyl)benzenesulfonamide] | triggered apoptosis through increasing the amounts of activated caspases 3/7 | > 32 µg/mL | > 32 µg/mL | significantly diminished the hemolytic activity | significantly reduced the production of protease | significantly diminished the hemolytic activity | 4 µg/mL (≈ 8.63 µM) | significantly decreased the production | 2 µg/mL (≈ 4.32 µM) | 2 µg/mL (≈ 4.32 µM) | 4 µg/mL (≈ 8.63 µM) | 2 µg/mL (≈ 4.32 µM) | 2 µg/mL (≈ 4.32 µM) | 2 µg/mL (≈ 4.32 µM)
